Data reported in PMC9858427, “Design, synthesis and biological evaluation of 2-((4-sulfamoylphenyl)amino)-pyrrolo[2,3-d]pyrimidine derivatives as CDK inhibitors” (Journal of Enzyme Inhibition and Medicinal Chemistry, 2023).
Like-named read-outs stand apart in the source and are kept apart here.

Experiments:
MIA PaCa-2 cells = assay: MTT proliferation assay in MIA PaCa-2 cells; type: cell-based, human; settings: 72 h drug exposure
Description: (§1) The human pancreatic carcinoma MIA PaCa-2 was purchased from China Centre for Type Culture Collection, AsPC-1 and BxPC-3 cell Lines were purchased from Cell Centre of the Institute of Basic Medical Sciences, Chinese Academy of Medical Sciences and Peking Union Medical College. PANC-1 was kindly provided by Nankai Hospital (Tianjin, China). These cancer cell lines were cultured according to the manufacturer’s instruction.
(§2) Then 3-fold diluted concentrations of tested compound were added respectively which was dissolved by DMSO in the ratio of 1:1000. After indicated incubation period, MTT was added to each well and incubated for 4 h at 37 °C. Then, the supernatant was discarded gently, and the precipitate was dissolved in 100 µL of DMSO in each well. The absorbance (A) at 570 nm was detected with a microplate reader (Multiskan MK3; Thermo Fisher Scientific, MA, USA). Vehicle-treated cells were served as the control for the calculation of relative cell viability (%) of treated group at single concentration. IC50 value was calculated directly from the inhibition curve of serial dilution of test compound and was expressed as mean ± SD using the SPSS statistical software (SPSS17.0 Inc., Chicago, IL, USA).

CDK9/cyclinT1 = CDK9/cyclinT1 (Homo sapiens, UniProt P50750); assay: CDK9/cyclinT1 Lance Ultra Assay, single concentration screen; type: biochemical; settings: ATP concentration at Km; for inhibition at 0.05 µM: 50 nM, read-out: CDK9 inhibitory rate (%) @ 50nM; for CDK9 inhibitory rate (%) @ 50nM: 0.05 µM
Description: (§3) CDK kinase activity (IC50 values and inhibitory rate at single concentration) was measured using the kinase profiling services (Shanghai ChemPartner Co., Ltd). Compounds were sent to ChemPartner as a solution in DMSO at concentration of 10 mM.

[1] = Solubility / precipitation observations; type: physicochemical
CDK2 = CDK2 (Homo sapiens, UniProt P24941); assay: CDK2 kinase IC50, Mobility shift assay; type: biochemical
Description: as §3

CDK9 = CDK9 (Homo sapiens, UniProt P50750); assay: CDK9 kinase IC50, Mobility shift assay; type: biochemical
Description: as §3

CDK4 = CDK4 (Homo sapiens, UniProt P11802); assay: CDK4 kinase IC50, Mobility shift assay; type: biochemical
Description: as §3

CDK7 = CDK7 (Homo sapiens, UniProt P50613); assay: CDK7 kinase IC50, Mobility shift assay; type: biochemical
Description: as §3

CDK1 = CDK1 (Homo sapiens, UniProt P06493); assay: CDK1 kinase IC50, Mobility shift assay; type: biochemical
Description: as §3

AsPC-1 = assay: MTT proliferation assay in AsPC-1 cells; type: cell-based; settings: Homo sapiens, ASPC1; 72 h drug exposure
Description: as §1
as §2, with “Cells were planted in 96-well plates at a density of 3000–4000 cells per well and incubated at 37 °C in a humidified CO2 incubator for 24 h. Then 3-fold” for “Then 3-fold”

BxPC-3 = assay: MTT proliferation assay in BxPC-3 cells; type: cell-based; settings: Homo sapiens, 72 h drug exposure
Description: as §1
as §2, with “Cells were planted in 96-well plates at a density of 3000–4000 cells per well and incubated at 37 °C in a humidified CO2 incubator for 24 h. Then 3-fold” for “Then 3-fold”

PANC-1 = assay: MTT proliferation assay in PANC-1 cells; type: cell-based; settings: Homo sapiens, 72 h drug exposure
Description: as §1
as §2, with “Cells were planted in 96-well plates at a density of 3000–4000 cells per well and incubated at 37 °C in a humidified CO2 incubator for 24 h. Then 3-fold” for “Then 3-fold”

Oral PK study in rats = type: in vivo; settings: male, SD, rat, plasma, 30 mg/kg
Description: Synthetic compound was administered as a suspension or solution in the saline with 5% DMSO and 5% Solutol. GCTB was dissolved in saline. All of the experiments were approved by the Institutional Animal Care and Use Committee of Institute of Medicinal Biotechnology. All experiments were carried out under ethics committee–approved protocols and in compliance with the guidelines for the care of laboratory animals of Institute of Medicinal Biotechnology, CAMS.
SD rats were purchased from Beijing Vital River Laboratory Animal Technology Co., Ltd and randomly divided into three groups (n = 3, male). The animals were housed under standard conditions and fastened for 12 h before the treatment. They had free access to water and consumed a standard laboratory diet from 4 h after administration. Blood was taken from the orbital venous plexus at 0, 0.083, 0.25, 0.5, 1, 2, 4, 6, 8, and 24 h after intragastric administration of the test compound (30 mg/kg). The blood samples were collected into heparin anticoagulated EP tubes and centrifuged at 8000 r/min for 5 min at 2−8 °C; the plasma was separated and stored at −70 °C for use. Plasma was centrifuged at 4000 rpm for 10 min at 2−8 °C and stored at −70 °C until analysis. Plasma samples were analysed by LC-MS/MS (AB Sciex API4000 QTRAP) equipped with an ESI ion resource and Analyst 1.5.1 software. The noncompartmental model analysis was used for calculating pharmacokinetic parameters with the WinNolin professional v6.3 program (Pharsight, USA).

Sequence of CDK9/cyclinT1 (P50750 whole entry): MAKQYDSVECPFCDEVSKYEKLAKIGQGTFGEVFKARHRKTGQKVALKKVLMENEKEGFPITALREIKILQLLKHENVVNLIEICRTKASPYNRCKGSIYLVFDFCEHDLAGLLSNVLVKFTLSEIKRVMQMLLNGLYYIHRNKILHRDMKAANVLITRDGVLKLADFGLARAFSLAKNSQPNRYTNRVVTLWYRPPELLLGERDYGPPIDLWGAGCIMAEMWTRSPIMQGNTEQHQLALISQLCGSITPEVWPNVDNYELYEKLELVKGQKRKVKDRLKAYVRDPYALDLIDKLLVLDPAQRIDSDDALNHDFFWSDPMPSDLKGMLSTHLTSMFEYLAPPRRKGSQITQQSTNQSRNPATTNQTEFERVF
Sequence of CDK9/cyclinT1 (O60563 whole entry partner): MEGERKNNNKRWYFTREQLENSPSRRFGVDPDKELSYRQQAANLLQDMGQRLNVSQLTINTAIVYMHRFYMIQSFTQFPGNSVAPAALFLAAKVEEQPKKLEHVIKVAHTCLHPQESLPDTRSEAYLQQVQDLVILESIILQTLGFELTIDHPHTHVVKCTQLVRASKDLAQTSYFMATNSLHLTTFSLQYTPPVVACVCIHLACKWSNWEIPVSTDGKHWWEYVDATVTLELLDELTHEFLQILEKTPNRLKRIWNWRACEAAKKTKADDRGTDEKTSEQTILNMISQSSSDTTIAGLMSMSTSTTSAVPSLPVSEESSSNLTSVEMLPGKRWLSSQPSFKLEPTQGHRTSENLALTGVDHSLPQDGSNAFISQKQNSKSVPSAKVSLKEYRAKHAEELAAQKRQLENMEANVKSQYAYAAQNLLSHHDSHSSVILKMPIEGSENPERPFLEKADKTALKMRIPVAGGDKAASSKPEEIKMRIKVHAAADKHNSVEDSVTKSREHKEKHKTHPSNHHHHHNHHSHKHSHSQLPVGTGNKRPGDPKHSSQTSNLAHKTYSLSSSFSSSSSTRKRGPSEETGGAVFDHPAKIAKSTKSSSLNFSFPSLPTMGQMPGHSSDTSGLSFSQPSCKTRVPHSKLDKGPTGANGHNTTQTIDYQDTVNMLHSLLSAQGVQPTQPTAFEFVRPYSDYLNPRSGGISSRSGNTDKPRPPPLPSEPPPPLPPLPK
Sequence of CDK9 (P50750 whole entry): as the sequence (P50750 whole entry) above
Sequence of CDK9 (O60563 whole entry partner): as the sequence (O60563 whole entry partner) above
Sequence of CDK7 (P50613 whole entry): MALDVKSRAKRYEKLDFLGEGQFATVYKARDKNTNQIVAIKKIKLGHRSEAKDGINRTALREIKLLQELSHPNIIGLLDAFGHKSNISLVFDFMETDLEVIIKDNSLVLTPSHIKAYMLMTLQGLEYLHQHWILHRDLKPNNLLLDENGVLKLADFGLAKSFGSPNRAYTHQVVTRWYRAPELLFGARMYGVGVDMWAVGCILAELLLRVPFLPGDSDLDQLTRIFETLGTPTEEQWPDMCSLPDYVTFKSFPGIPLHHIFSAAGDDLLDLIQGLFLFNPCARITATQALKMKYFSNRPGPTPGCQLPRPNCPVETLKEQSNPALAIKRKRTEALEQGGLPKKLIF
Sequence of CDK7 (P51946 whole entry partner): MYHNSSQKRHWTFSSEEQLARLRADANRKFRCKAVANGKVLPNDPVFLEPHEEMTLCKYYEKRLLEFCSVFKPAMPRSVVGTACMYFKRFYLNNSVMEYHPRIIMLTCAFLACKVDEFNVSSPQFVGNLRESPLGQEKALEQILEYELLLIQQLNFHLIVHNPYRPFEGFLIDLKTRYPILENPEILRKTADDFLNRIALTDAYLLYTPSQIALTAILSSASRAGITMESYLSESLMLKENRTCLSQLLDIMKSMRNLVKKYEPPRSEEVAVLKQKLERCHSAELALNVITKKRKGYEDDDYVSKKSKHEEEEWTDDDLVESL
Sequence of CDK7 (P51948 whole entry partner): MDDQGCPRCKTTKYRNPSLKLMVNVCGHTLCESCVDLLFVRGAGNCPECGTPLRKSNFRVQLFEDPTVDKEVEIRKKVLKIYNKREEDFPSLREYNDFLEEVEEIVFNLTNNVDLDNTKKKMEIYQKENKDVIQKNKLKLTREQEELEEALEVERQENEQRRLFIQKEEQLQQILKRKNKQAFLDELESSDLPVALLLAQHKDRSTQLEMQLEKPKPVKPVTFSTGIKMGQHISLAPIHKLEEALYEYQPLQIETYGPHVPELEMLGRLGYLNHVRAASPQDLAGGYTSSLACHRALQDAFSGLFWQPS
Sequence of CDK4 (P11802 whole entry): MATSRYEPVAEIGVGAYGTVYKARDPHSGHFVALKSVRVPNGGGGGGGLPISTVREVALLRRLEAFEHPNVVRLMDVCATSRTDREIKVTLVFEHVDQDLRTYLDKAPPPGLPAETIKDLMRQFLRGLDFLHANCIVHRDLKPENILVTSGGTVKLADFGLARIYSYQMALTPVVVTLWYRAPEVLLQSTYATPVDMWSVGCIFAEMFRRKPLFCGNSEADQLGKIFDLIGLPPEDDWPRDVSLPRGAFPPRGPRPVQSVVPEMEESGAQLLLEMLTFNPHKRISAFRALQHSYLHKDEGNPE
Sequence of CDK4 (P30281 whole entry partner): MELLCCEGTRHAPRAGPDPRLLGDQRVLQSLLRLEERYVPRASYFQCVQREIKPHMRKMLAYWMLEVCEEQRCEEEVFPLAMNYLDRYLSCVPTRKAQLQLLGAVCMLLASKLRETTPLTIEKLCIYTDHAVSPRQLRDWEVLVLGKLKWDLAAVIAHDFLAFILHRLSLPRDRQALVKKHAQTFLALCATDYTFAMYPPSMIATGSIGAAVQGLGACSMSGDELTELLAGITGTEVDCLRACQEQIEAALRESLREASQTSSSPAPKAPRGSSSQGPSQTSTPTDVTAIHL
Sequence of CDK1 (P06493 whole entry): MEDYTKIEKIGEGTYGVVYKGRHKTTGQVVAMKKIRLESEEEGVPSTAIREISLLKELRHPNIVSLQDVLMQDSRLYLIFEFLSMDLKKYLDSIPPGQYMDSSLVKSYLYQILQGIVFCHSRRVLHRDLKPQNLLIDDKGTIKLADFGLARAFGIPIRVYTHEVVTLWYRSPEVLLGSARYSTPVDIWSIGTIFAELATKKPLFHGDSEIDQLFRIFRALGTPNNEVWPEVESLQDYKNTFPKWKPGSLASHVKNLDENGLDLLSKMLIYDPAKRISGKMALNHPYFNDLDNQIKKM
Sequence of CDK1 (P14635 whole entry partner): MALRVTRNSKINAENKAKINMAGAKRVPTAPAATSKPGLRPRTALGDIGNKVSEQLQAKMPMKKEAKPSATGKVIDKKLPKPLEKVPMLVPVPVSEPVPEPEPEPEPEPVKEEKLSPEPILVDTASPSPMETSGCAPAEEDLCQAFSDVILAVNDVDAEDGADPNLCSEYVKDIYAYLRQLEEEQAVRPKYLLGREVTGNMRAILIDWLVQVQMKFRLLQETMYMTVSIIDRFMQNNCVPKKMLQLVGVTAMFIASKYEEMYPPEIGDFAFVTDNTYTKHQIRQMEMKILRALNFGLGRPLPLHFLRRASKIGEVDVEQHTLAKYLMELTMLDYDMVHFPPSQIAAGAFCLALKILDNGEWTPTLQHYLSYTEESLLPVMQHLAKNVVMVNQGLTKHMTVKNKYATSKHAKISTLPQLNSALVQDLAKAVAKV

Compound | IC50 (MIA PaCa-2 cells; Homo sapiens, MIA PaCa-2, 72 h) [µM] | inhibition at 0.05 µM (CDK9/cyclinT1) [%] | IC50 (CDK2) [nM] | IC50 (CDK9) [nM] | IC50 (CDK4) [nM] | IC50 (CDK7) [nM] | other results
Cc1ccnc(NS(=O)(=O)c2ccc(Nc3ncc4cc(C(=O)N(C)C)n(C5CCCC5)c4n3)cc2)n1 [2a, 7-cyclopentyl-N,N-dimethyl-2-((4-(N-(4-methylpyrimidin-2-yl)sulfamoyl)phenyl)amino)-7H-pyrrolo[2,3-d]pyrimidine-6-carboxamide] | > 10 | 100 | – | – | – | – | IC50 (MIA PaCa-2 cells): 13 ± 0.37 µM
CN(C)C(=O)c1cc2cnc(Nc3ccc(S(=O)(=O)Nc4ccccn4)cc3)nc2n1C1CCCC1 [2c] | 18.8 ± 5.54 | 99.1 | – | – | – | – | solubility (in words) [1]: poor solubility
CN(C)C(=O)c1cc2cnc(Nc3ccc(S(=O)(=O)Nc4ccc(Cl)cc4)cc3)nc2n1C1CCCC1 [2d, 2-((4-(N-(4-chlorophenyl)sulfamoyl)phenyl)amino)-7-cyclopentyl-N,N-dimethyl-7H-pyrrolo[2,3-d]pyrimidine-6-carboxamide] | 6.23 ± 1.25 | 91.8 | 7980 | 7.7 | 148 | > 10000 | –
CN(C)C(=O)c1cc2cnc(Nc3ccc(S(=O)(=O)N(C)C)cc3)nc2n1C1CCCC1 [2e, 7-Cyclopentyl-2-((4-(N,N-dimethylsulfamoyl)phenyl)amino)-N,N-dimethyl-7H-pyrrolo[2,3-d]pyrimidine-6-carboxamide] | 10.5 ± 0.74 | 89.3 | – | – | – | – | –
CN(C)C(=O)c1cc2cnc(Nc3ccc(S(C)(=O)=O)cc3)nc2n1C1CCCC1 [2f, 7-Cyclopentyl-N,N-dimethyl-2-((4-(methylsulfonyl)phenyl)amino)-7H-pyrrolo[2,3-d]pyrimidine-6-carboxamide] | 18.9 ± 2.12 | 96.5 | – | – | – | – | –
CN(C)C(=O)c1cc2cnc(Nc3ccc(S(=O)(=O)N(C)C)cn3)nc2n1C1CCCC1 [2j] | 69.1 ± 15.5 | 25 | – | – | – | – | CDK9 inhibitory rate (%) @ 50nM (CDK9/cyclinT1): 25.8%
CN1CCN(S(=O)(=O)c2ccc(Nc3ncc4cc(C(=O)N(C)C)n(C5CCCC5)c4n3)cc2)CC1 [5c, 7-Cyclopentyl-N,N-dimethyl-2-((4-((4-methylpiperazin-1-yl)sulphonyl)phenyl)amino)-7H-pyrrolo[2,3-d]pyrimidine-6-carboxamide] | 7.8 ± 1.04 | 99.1 | 227 | 6.3 | 35 | > 10000 | IC50 (CDK1): 550 nM
CC1CCN(S(=O)(=O)c2ccc(Nc3ncc4cc(C(=O)N(C)C)n(C5CCCC5)c4n3)cc2)CC1 [5d, 7-Cyclopentyl-N,N-dimethyl-2-((4-((4-methylpiperidin-1-yl)sulphonyl)phenyl)amino)-7H-pyrrolo[2,3-d]pyrimidine-6-carboxamide] | 2.85 ± 0.52 | 80.6 | 2340 | 20 | 170 | > 10000 | IC50 (CDK1): 906 nM
CN(C)C(=O)c1cc2cnc(Nc3ccc(S(=O)(=O)N4CCOCC4)cc3)nc2n1C1CCCC1 [5e, 7-Cyclopentyl-N,N-dimethyl-2-((4-(morpholinosulfonyl)phenyl)amino)-7H-pyrrolo[2,3-d]pyrimidine-6-carboxamide] | 4.35 ± 1.61 | 81.8 | 236 | 13 | 52 | > 10000 | IC50 (CDK1): 439 nM
COc1ccccc1NC(=O)c1cc2cnc(Nc3ccc(S(=O)(=O)Nc4nc(C)cc(C)n4)cc3)nc2n1C1CCCC1 [10a, 7-Cyclopentyl-2-((4-(N-(4,6-dimethylpyrimidin-2-yl)sulfamoyl)phenyl)amino)-N-(2-methoxyphenyl)-7H-pyrrolo[2,3-d]pyrimidine-6-carboxamide] | 40.8 ± 3.26 | -3.1 | – | – | – | – | –
COc1ccccc1NC(=O)c1cc2cnc(Nc3ccc(S(=O)(=O)Nc4ncccn4)cc3)nc2n1C1CCCC1 [10b, 7-Cyclopentyl-N-(2-methoxyphenyl)-2-((4-(N-(pyrimidin-2-yl)sulfamoyl)phenyl)amino)-7H-pyrrolo[2,3-d]pyrimidine-6-carboxamide] | 80.8 ± 16 | 54 | – | – | – | – | CDK9 inhibitory rate (%) @ 50nM (CDK9/cyclinT1): 54.4%
CN(C)C(=O)c1cc2cnc(Nc3ccc(N4CCNCC4)cn3)nc2n1C1CCCC1 [Ribociclib, reference compound] | 16.5 ± 7 | 16.9 | – | – | – | – | –
CN(C)C(=O)c1cc2cnc(Nc3ccc(S(=O)(=O)Nc4ncccn4)cc3)nc2n1C1CCCC1 [compound 2b, 7-Cyclopentyl-N,N-dimethyl-2-((4-(N-(pyrimidin-2-yl)sulfamoyl)phenyl)amino)-7H-pyrrolo[2,3-d]pyrimidine-6-carboxamide] | > 10 | 98.7 | – | – | – | – | solubility (in words) [1]: poor solubility; IC50 (MIA PaCa-2 cells): 14.3 ± 0.21 µM
CN(C)C(=O)c1cc2cnc(Nc3ccccc3)nc2n1C1CCCC1 [compound 2h] | 45.1 ± 16.6 | 93.2 | – | – | – | – | –
CN(C)C(=O)c1cc2cnc(Nc3ccc(S(N)(=O)=O)cn3)nc2n1C1CCCC1 [compound 2i, 7-Cyclopentyl-N,N-dimethyl-2-((5-sulfamoylpyridin-2-yl)amino)-7H-pyrrolo[2,3-d]pyrimidine-6-carboxamide] | > 100 | 27 | – | – | – | – | CDK9 inhibitory rate (%) @ 50nM (CDK9/cyclinT1): 27.4%
CN(C)C(=O)c1cc2cnc(Nc3ccc(S(=O)(=O)N4CCNCC4)cc3)nc2n1C1CCCC1.O=C(O)C(F)(F)F [compound 5b, 7-Cyclopentyl-N,N-dimethyl-2-((4-(piperazin-1-ylsulfonyl)phenyl)amino)-7H-pyrrolo[2,3-d]pyrimidine-6-carboxamide trifluoroacetate] | 0.94 ± 0.25 | 98.2 | 147 | 3.2 | 20 | 4970 | IC50 (AsPC-1): 1.48 ± 0.09 µM; IC50 (BxPC-3): 0.249 ± 0.099 µM; IC50 (PANC-1): 5.81 ± 1.38 µM; IC50 (CDK1): 333 nM; Cmax (Oral PK study in rats; single oral administration, read-out: maximum plasma drug concentration (Cmax)): 1080 ng/mL; AUC (Oral PK study in rats; single oral administration, read-out: systematic exposure (AUC0‑t)): 4430 ng·h/mL; AUC(0-inf) (Oral PK study in rats; oral, n = 3): 4780 ± 2160 ng·h/mL; AUC(0-t) (Oral PK study in rats; oral, n = 3): 4430 ± 1620 ng·h/mL; MRT (Oral PK study in rats; oral, n = 3): 3.62 ± 0.83 h; Tmax (Oral PK study in rats; oral, n = 3): 1.17 h; half-life (Oral PK study in rats; oral, n = 3): 2.2 ± 0.9 h; Cmax (Oral PK study in rats; oral, n = 3, read-out: Cmax): 2000 nM
